Legend:
[1] = test system: SK-OV-3; experiment: Induction of cell cycle arrest at G2/M phase in human SK-OV-3 cells at 0.625 nM incubated for 24 hrs by PI staining based flow cytometry (reference value: 30.13 %); assay type: functional
[2] = test system: SK-OV-3; experiment: Induction of cell cycle arrest at G2/M phase in human SK-OV-3 cells at 1.25 nM incubated for 24 hrs by PI staining based flow cytometry (reference value: 30.13 %); assay type: functional
[3] = test system: SK-OV-3; experiment: Induction of apoptosis in human SK-OV-3 cells assessed as viable cells at 0.625 nM incubated for 48 hrs by Annexin V-APC-A/7-AAD-A staining based flow cytometry (reference value: 97.50 %); assay type: functional; conditions: read-out: Activity
[4] = test system: SK-OV-3; experiment: Induction of apoptosis in human SK-OV-3 cells assessed as early apoptotic cells at 0.625 nM incubated for 48 hrs by Annexin V-APC-A/7-AAD-A staining based flow cytometry (reference value: 1.10 %); assay type: functional
[5] = test system: SK-OV-3; experiment: Induction of apoptosis in human SK-OV-3 cells assessed as necrotic cells at 0.625 nM incubated for 48 hrs by Annexin V-APC-A/7-AAD-A staining based flow cytometry (reference value: 0.21 %); assay type: functional
[6] = test system: SK-OV-3; experiment: Induction of apoptosis in human SK-OV-3 cells assessed as viable cells at 1.25 nM incubated for 48 hrs by Annexin V-APC-A/7-AAD-A staining based flow cytometry (reference value: 97.50 %); assay type: functional; conditions: read-out: Activity
[7] = test system: SK-OV-3; experiment: Induction of apoptosis in human SK-OV-3 cells assessed as late apoptotic cells at 1.25 nM incubated for 48 hrs by Annexin V-APC-A/7-AAD-A staining based flow cytometry (reference value: 1.20 %); assay type: functional
[8] = test system: SK-OV-3; experiment: Induction of apoptosis in human SK-OV-3 cells assessed as necrotic cells at 1.25 nM incubated for 48 hrs by Annexin V-APC-A/7-AAD-A staining based flow cytometry (reference value: 0.21 %); assay type: functional
[9] = test system: SK-OV-3; experiment: Induction of apoptosis in human SK-OV-3 cells assessed as early apoptotic cells at 2.5 nM incubated for 48 hrs by Annexin V-APC-A/7-AAD-A staining based flow cytometry (reference value: 1.10 %); assay type: functional
[10] = test system: SK-OV-3; experiment: Induction of apoptosis in human SK-OV-3 cells assessed as late apoptotic cells at 2.5 nM incubated for 48 hrs by Annexin V-APC-A/7-AAD-A staining based flow cytometry (reference value: 1.20 %); assay type: functional
[11] = test system: SK-OV-3; experiment: Induction of apoptosis in human SK-OV-3 cells assessed as necrotic cells at 2.5 nM incubated for 48 hrs by Annexin V-APC-A/7-AAD-A staining based flow cytometry (reference value: 0.21 %); assay type: functional
[12] = test system: SK-OV-3; experiment: Induction of apoptosis in human SK-OV-3 cells assessed as viable cells at 5 nM incubated for 48 hrs by Annexin V-APC-A/7-AAD-A staining based flow cytometry (reference value: 97.50 %); assay type: functional; conditions: read-out: Activity
[13] = test system: SK-OV-3; experiment: Induction of apoptosis in human SK-OV-3 cells assessed as early apoptotic cells at 5 nM incubated for 48 hrs by Annexin V-APC-A/7-AAD-A staining based flow cytometry (reference value: 1.10 %); assay type: functional
[14] = test system: SK-OV-3; experiment: Induction of apoptosis in human SK-OV-3 cells assessed as late apoptotic cells at 5 nM incubated for 48 hrs by Annexin V-APC-A/7-AAD-A staining based flow cytometry (reference value: 1.20 %); assay type: functional
[15] = test system: SK-OV-3; experiment: Inhibition of cell migration in human SK-OV-3 cells assessed as relative wound density at 0.625 nM incubated for 24 hrs by wound healing assay (reference value: 61.61 %); assay type: functional; set-up: scale not given: the % may be the effect or the level left
[16] = test system: SK-OV-3; experiment: Inhibition of cell migration in human SK-OV-3 cells assessed as relative wound density at 1.25 nM incubated for 24 hrs by wound healing assay (reference value: 61.61 %); assay type: functional; set-up: scale not given: the % may be the effect or the level left
[17] = test system: SK-OV-3; experiment: Inhibition of cell migration in human SK-OV-3 cells assessed as relative wound density at 5 nM incubated for 24 hrs by wound healing assay (reference value: 61.61 %); assay type: functional; set-up: scale not given: the % may be the effect or the level left
[18] = biological target: Tubulin; experiment: Binding affinity to CM5-chip immobilized tubulin (unknown origin) assessed as dissociation constant by SPR analysis; assay type: protein-complex assay, Homo sapiens
[19] = test system: SK-OV-3; experiment: Induction of cell cycle arrest at G2/M phase in human SK-OV-3 cells at 5 nM incubated for 24 hrs by PI staining based flow cytometry (reference value: 29.73 %); assay type: functional
[20] = test system: SK-OV-3; experiment: Induction of apoptosis in human SK-OV-3 cells assessed as early apoptotic cells at 0.625 nM incubated for 48 hrs by Annexin V-APC-A/7-AAD-A staining based flow cytometry (reference value: 1.12 %); assay type: functional
[21] = test system: SK-OV-3; experiment: Induction of apoptosis in human SK-OV-3 cells assessed as late apoptotic cells at 0.625 nM incubated for 48 hrs by Annexin V-APC-A/7-AAD-A staining based flow cytometry (reference value: 1.22 %); assay type: functional
[22] = test system: SK-OV-3; experiment: Induction of apoptosis in human SK-OV-3 cells assessed as necrotic cells at 0.625 nM incubated for 48 hrs by Annexin V-APC-A/7-AAD-A staining based flow cytometry (reference value: 0.48 %); assay type: functional
[23] = test system: SK-OV-3; experiment: Induction of apoptosis in human SK-OV-3 cells assessed as late apoptotic cells at 1.25 nM incubated for 48 hrs by Annexin V-APC-A/7-AAD-A staining based flow cytometry (reference value: 1.22 %); assay type: functional
[24] = test system: SK-OV-3; experiment: Induction of apoptosis in human SK-OV-3 cells assessed as early apoptotic cells at 2.5 nM incubated for 48 hrs by Annexin V-APC-A/7-AAD-A staining based flow cytometry (reference value: 1.12 %); assay type: functional
[25] = test system: SK-OV-3; experiment: Induction of apoptosis in human SK-OV-3 cells assessed as necrotic cells at 2.5 nM incubated for 48 hrs by Annexin V-APC-A/7-AAD-A staining based flow cytometry (reference value: 0.48 %); assay type: functional
[26] = test system: SK-OV-3; experiment: Induction of apoptosis in human SK-OV-3 cells assessed as viable cells at 5 nM incubated for 48 hrs by Annexin V-APC-A/7-AAD-A staining based flow cytometry (reference value: 97.17 %); assay type: functional; conditions: read-out: Activity
[27] = test system: SK-OV-3; experiment: Induction of apoptosis in human SK-OV-3 cells assessed as early apoptotic cells at 5 nM incubated for 48 hrs by Annexin V-APC-A/7-AAD-A staining based flow cytometry (reference value: 1.12 %); assay type: functional
[28] = test system: SK-OV-3; experiment: Induction of apoptosis in human SK-OV-3 cells assessed as late apoptotic cells at 5 nM incubated for 48 hrs by Annexin V-APC-A/7-AAD-A staining based flow cytometry (reference value: 1.22 %); assay type: functional
[29] = test system: SK-OV-3; experiment: Inhibition of cell migration in human SK-OV-3 cells assessed as relative wound density at 0.625 nM incubated for 24 hrs by wound healing assay (reference value: 74.53 %); assay type: functional; set-up: scale not given: the % may be the effect or the level left
[30] = test system: SK-OV-3; experiment: Inhibition of cell migration in human SK-OV-3 cells assessed as relative wound density at 1.25 nM incubated for 24 hrs by wound healing assay (reference value: 74.53 %); assay type: functional; set-up: scale not given: the % may be the effect or the level left
[31] = test system: SK-OV-3; experiment: Inhibition of cell migration in human SK-OV-3 cells assessed as relative wound density at 2.5 nM incubated for 24 hrs by wound healing assay (reference value: 74.53 %); assay type: functional; set-up: scale not given: the % may be the effect or the level left
[32] = test system: SK-OV-3; experiment: Inhibition of cell migration in human SK-OV-3 cells assessed as relative wound density at 5 nM incubated for 24 hrs by wound healing assay (reference value: 74.53 %); assay type: functional; set-up: scale not given: the % may be the effect or the level left

## COc1ccc(N(C)c2nc(Cl)nc3ccn(C)c23)cc1
[1]
  Activity: 32.3%
[2]
  Activity: 34.62%
[3]
  viability at 0.000625 µM: 96.2%
[4]
  Activity: 1.53%
[5]
  Activity: 0.33%
[6]
  viability at 0.00125 µM: 94.1%
[7]
  Activity: 2.48%
[8]
  Activity: 0.56%
[9]
  Activity: 20.62%
[10]
  Activity: 2.27%
[11]
  Activity: 1.17%
[12]
  viability at 0.005 µM: 54%
[13]
  Activity: 39.84%
[14]
  Activity: 3.86%
[15]
  Activity: 58.03%
[16]
  Activity: 54.94%
[17]
  Activity: 12.11%

## COc1ccc2c(c1)NC(=O)CN2c1nc(Cl)nc2ccsc12
[18]
  Kd: 24.4 µM
[19]
  Activity: 88.67%
[20]
  Activity: 15.61%
[21]
  Activity: 2.48%
[22]
  Activity: 0.91%
[23]
  Activity: 4.64%
[24]
  Activity: 39.07%
[25]
  Activity: 2.32%
[26]
  viability at 0.005 µM: 62.1%
[27]
  Activity: 31.24%
[28]
  Activity: 4.63%
[29]
  Activity: 67.94%
[30]
  Activity: 33.15%
[31]
  Activity: 9.35%
[32]
  Activity: 7.98%
